Tests used:
Plasmodium falciparum [1] = experiment: MMV: Inhibition of Plasmodium falciparum 3D7 at 2uM compound concentration.; type: functional
Trypanosoma cruzi = experiment: MMV: Inhibition of Trypanosoma cruzi (Tulahuen C4 LacZ) (Chagas in vitro).; type: functional, organism-based
[2] = tested on: Trypanosoma brucei brucei; experiment: MMV: Inhibition of Trypanosoma brucei brucei (Squib 427) (HAT in vitro).; type: functional, organism-based
[3] = tested on: Trypanosoma brucei rhodesiense; experiment: MMV: Inhibition of Trypanosoma brucei rhodesiense (STIB 900) (HAT in vitro).; type: functional, organism-based
Leishmania infantum = experiment: MMV: Inhibition of Leishmania infantum (MHOM/MA/BE/67) in vitro.; type: functional, organism-based
[4] = MMV: Cytotoxicity against human fibroblasts (MRC-5) cells.; conditions: MRC-5 cells (human fibroblasts)
Plasmodium falciparum [5] = experiment: MMV: Inhibition of Plasmodium falciparum 3D7 (EC50).; type: functional, organism-based
Plasmodium falciparum [6] = experiment: MMV: Inhibition of Plasmodium falciparum 3D7 at 5uM compound concentration.; type: functional
Plasmodium falciparum [7] = experiment: MMV: Inhibition of Plasmodium falciparum K1 (EC50).; type: functional, organism-based

Row | Compound | IC50 (Trypanosoma cruzi) | IC50 [2] | IC50 [3] | IC50 (Leishmania infantum) | EC50 (Plasmodium falciparum [5]) | EC50 (Plasmodium falciparum [7]) | inhibition at 2 µM (Plasmodium falciparum [1]) | IC50 [4] | inhibition at 5 µM (Plasmodium falciparum [6])
1 | CCOc1ccc(N2C(N)=NC(N)=NC2(C)C)cc1 | > 32 µM | > 32 µM | > 32 µM | > 32 µM | – | – | 92% | 21.1 µM | –
2 | CCc1ccc(Nc2cc(C)nc3nc(C)nn23)cc1 | > 32 µM | > 32 µM | > 32 µM | > 32 µM | 4 µM | – | 81% | > 32 µM | –
3 | CN(C)c1ccc(N2C(N)=NC(N)=NC2(C)C)cc1 | > 32 µM | > 32 µM | > 32 µM | > 32 µM | – | – | 95% | > 32 µM | –
4 | CCOc1ccc(Nc2ccnc3cc(Cl)ccc23)cc1 | > 32 µM | > 32 µM | > 32 µM | > 32 µM | 4 µM | – | 94% | > 32 µM | –
5 | COc1cc(SC)ccc1C(=O)N1CCCC(C)C1 (configuration not stated) | > 32 µM | > 32 µM | > 32 µM | > 32 µM | 4 µM | – | 45% | > 32 µM | –
6 | CN1CCN(c2c3c(c(C#N)c4nc5ccccc5n24)CCC3)CC1 | > 32 µM | > 32 µM | > 32 µM | > 32 µM | 4 µM | – | 42% | > 32 µM | –
7 | CCCCc1c(C)nc2c(OC)cccc2c1O | > 32 µM | > 32 µM | > 32 µM | > 32 µM | 4 µM | – | 92% | > 32 µM | –
8 | CCOC(=O)c1cn(CC)c2cc(N(C)CCc3ccc(OC)c(OC)c3)c(F)cc2c1=O | > 32 µM | > 32 µM | > 32 µM | > 32 µM | 0.205 µM | 0.436 µM | – | > 32 µM | 99%
9 | CCCCCCc1cc(O)c2c3c(c(=O)oc2c1)CCC(C)C3 (configuration not stated) | > 32 µM | 4.18 µM | 4.21 µM | > 32 µM | 0.534 µM | 0.467 µM | – | > 32 µM | 96%
10 | COc1cc2c3cc1Oc1c(OC)c(OC)cc4c1C(Cc1ccc(O)c(c1)Oc1ccc(cc1)CC3N(C)CC2)N(C)CC4 (configuration not stated) | 3.67 µM | 14.5 µM | 4.59 µM | 12 µM | 1.27 µM | 1.19 µM | – | 4.42 µM | 96%
11 | COc1ccc(C(C)=O)cc1N1C(=O)C2C(C1=O)C1(c3ccccc3)C(=O)C2(c2ccccc2)C(c2ccc(C)cc2)=C1c1ccc(C)cc1 (configuration not stated) | > 32 µM | > 32 µM | > 32 µM | > 32 µM | 0.179 µM | 0.224 µM | – | > 32 µM | 96%

The remaining molecules from weak to strong by IC50 (Trypanosoma cruzi), led by results:

Row | IC50 (Trypanosoma cruzi) | IC50 [2] | IC50 [3] | IC50 (Leishmania infantum) | EC50 (Plasmodium falciparum [5]) | EC50 (Plasmodium falciparum [7]) | Compound | inhibition at 2 µM (Plasmodium falciparum [1]) | IC50 [4] | inhibition at 5 µM (Plasmodium falciparum [6])
12 | 21.1 µM | > 32 µM | 27.7 µM | > 32 µM | 4 µM | – | Cc1ccc2c(C)nc(Nc3nc(C)cc(-c4ccccc4)n3)nc2c1 | 73% | > 32 µM | –
13 | 15.8 µM | 9.07 µM | 12.1 µM | 12 µM | 4 µM | – | COc1cccc(Nc2nc(N)c3ccccc3n2)c1 | 94% | > 32 µM | –
14 | 15.4 µM | 3.09 µM | 3.8 µM | 6.35 µM | 0.663 µM | 1.61 µM | COc1ccc(CNC2CCN(c3ccc(NC(=O)c4cccc(Cl)c4)cc3)CC2)cc1OC | – | > 32 µM | 97%
15 | 13.7 µM | 3.73 µM | 3.49 µM | 4 µM | 4 µM | – | CCOc1ccc2nc(C)cc(Nc3ccc(N(C)C)cc3)c2c1 | 94% | 18.6 µM | –
16 | 11.4 µM | 17.6 µM | 11.4 µM | 4.32 µM | 0.4 µM | – | Cc1cccc(Nc2nc(N)c3ccccc3n2)c1 | 97% | > 32 µM | –
17 | 7.26 µM | 3.91 µM | 4.03 µM | 6.35 µM | 4 µM | – | CN(C)CCNc1cc(-c2ccccc2)nc2ccccc12 | 92% | 25.4 µM | –
18 | 5.5 µM | > 32 µM | 16.1 µM | > 32 µM | – | – | COc1ccc2sc(N(Cc3cccnc3)C(=O)c3ccc(C#N)cc3)nc2c1 | 89% | > 32 µM | –
19 | 4.22 µM | 3.6 µM | 3.35 µM | 4.06 µM | 0.48 µM | – | CCOc1ccc2nc(C)cc(Nc3ccc(Br)cc3)c2c1 | 96% | 3.17 µM | –
20 | 3.81 µM | 3.35 µM | 6.53 µM | 4 µM | 4 µM | – | Cc1ccc(Nc2nc(N)c3ccccc3n2)cc1Cl | 96% | 15.4 µM | –
21 | 3.7 µM | 3.94 µM | 3.33 µM | 16.2 µM | 2.06 µM | 2.13 µM | O=C(Nc1ccc(F)c(Cl)c1)Nc1ccc(Cl)c(Cl)c1 | – | 4.51 µM | 95%
22 | 3.66 µM | 3.57 µM | 3.51 µM | 4.06 µM | 2 µM | – | COc1ccc2nc(C)cc(Nc3ccc(Cl)cc3)c2c1 | 95% | > 32 µM | –
23 | 2.58 µM | 3.33 µM | 2.06 µM | 3.01 µM | 0.59 µM | – | OCCNc1nc(Nc2ccc(Cl)c(Cl)c2)nc2ccccc12 | 94% | 4.96 µM | –
24 | 1.46 µM | 3.36 µM | 3.05 µM | 0.707 µM | 0.776 µM | – | c1ccc(CNc2nc(Nc3ccccc3)nc3ccccc23)cc1 | 95% | 3.36 µM | –
25 | 0.919 µM | 7.58 µM | 4.03 µM | 2.57 µM | – | – | Cc1cc(Nc2cccc(F)c2)nc(NCc2ccccc2)n1 | 97% | > 32 µM | –

From ChEMBL document CHEMBL2028040, “Malaria Box”
